Source: the METLIN SMRT retention time set (Domingo-Almenara et al. 2019)

Experiment: gradient 5% acetonitrile 3 min, to 50% in 2 min, to 85% in 15 min, held 3 min, 100 µL/min
Conditions: column: Zorbax Extend-C18 2.1 x 50 mm; eluents: water / acetonitrile, 0.1% formic acid
Method in brief: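 Pure standards were run in mixtures of ~100 molecules by HPLC coupled to a quadrupole time-of-flight mass spectrometer. The column was a Zorbax Extend-C18 (2.1 × 50 mm, 1.8 μm) at 100 μL/min, with water and acetonitrile each containing 0.1% formic acid, in positive and negative ionization mode. Dead and dwell volumes were 40 μL and 900 μL. Retention time was taken from computationally picked adduct peaks, each manually inspected, with data collected over 3 months.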

`N#Cc1ccc(C(=O)NC2CCN(C(=O)N3C[C@H]4C[C@H](C3)[C@H]3CCCC(=O)N3C4)CC2)cc1` gave an RP-LC retention time of 640 s.
For `O=C(C1=CN(c2cc(F)cc(F)c2)c2cc(Cl)ccc2S1(=O)=O)N1CCCC1`, the RP-LC retention time was 861 s.
`COC(=O)Nc1ccc2c(c1)C(=O)N(C)CCO2` gave an RP-LC retention time of 587 s.
Work on `CCC(=O)N1CCOc2ccc(N3CCOCC3)cc2C1` yielded an RP-LC retention time of 630 s.
`CCc1ccc(C(=O)N2CCc3[nH]nc(C(=O)N(C)C)c3C2)cc1` gave an RP-LC retention time of 659 s.
In the case of `CCc1nc2cc3c(cc2n1CC(=O)Nc1ccccc1OC)OCCO3`, the RP-LC retention time was 627 s.
In the case of `Cc1oc(-c2ccc(OC(C)C)cc2)nc1CSc1nc2ncccc2o1`, the RP-LC retention time was 1100 s.
For `COCCN1CCC(N2CCN(S(=O)(=O)c3ccc(OC)c(Cl)c3)CC2)C1=O` (stereo not drawn), the RP-LC retention time was 583 s.
`Cc1ccc(-c2nc3cnccn3c2Nc2c(C)cccc2C)cc1` showed an RP-LC retention time of 947 s.
Compound `O=C(Cc1ccccc1)N1CC(Oc2ccc(-c3nc(-c4ccccc4)no3)cc2)C1` has an RP-LC retention time of 1150 s.
`CNC(=O)N1CCCC(c2cccc(C(=O)NCc3ccccc3C(F)(F)F)c2)C1` (stereo not drawn) showed an RP-LC retention time of 838 s.
With `COc1ccc(OC)c(CCN2CC(=O)N(c3ccc(C)c(Cl)c3)[C@@H]3CS(=O)(=O)C[C@@H]32)c1` the RP-LC retention time was 921 s.
`C[C@@H](O)[C@H]1C(=O)N2C(C(=O)OCOC(=O)C(C)(C)C)=C(SC3CN(C4=NCCS4)C3)[C@H](C)[C@H]12` gave an RP-LC retention time of 732 s.
`COCc1nc(C2CCN(S(=O)(=O)c3ccc4c(c3)OCCO4)C2)no1` (stereo not drawn) showed an RP-LC retention time of 779 s.
Compound `CCOc1ccc(S(=O)(=O)N2CCC(C(=O)N3CCN(C)CC3)CC2)cc1C` has an RP-LC retention time of 654 s.
`COc1ccc(-c2noc(C3CCCN3C(=O)Nc3ccc(C)c(C)c3)n2)cc1` (stereo not drawn) gave an RP-LC retention time of 925 s.
`Cn1nccc1C(=O)N1CCN(S(=O)(=O)c2ccc3c(c2)sc(=O)n3C)CC1` showed an RP-LC retention time of 699 s.
Compound `CC1(C(=O)NC2CCCC2)Cn2cnc(C(=O)NCc3ccc(F)cc3)c2C(=O)N1C1CC1` (stereo not drawn) has an RP-LC retention time of 759 s.
In the case of `CNC(=O)[C@@H]1C[C@@H](O)CN1C1CCN(C(=O)C2CCCCC2)CC1`, the RP-LC retention time was 577 s.
In the case of `CCOc1cc(C)c(C(C)C)cc1S(=O)(=O)NCc1ccccn1`, the RP-LC retention time was 766 s.
`Cc1cccc(CN2CCC(CNC(=O)C3CCCN(c4nccc(C)n4)C3)CC2)c1` (stereo not drawn) gave an RP-LC retention time of 615 s.
Work on `CCCN1C(=O)c2cc(S(=O)(=O)Nc3ccccc3Cl)ccc2Oc2cccnc21` yielded an RP-LC retention time of 1090 s.
Work on `O=c1ccc(-c2cccc(Cl)c2)nn1CCc1nc(-c2ccc(F)cc2)no1` yielded an RP-LC retention time of 1060 s.
`O=C(Nc1nnc(C2CCCO2)o1)c1cc2ccccc2o1` (stereo not drawn) showed an RP-LC retention time of 655 s.
For `CCOC(=O)c1[nH]c(C)c(CCC(=O)N2CCC(C(=O)NCc3ccc(C)cc3)CC2)c1C`, the RP-LC retention time was 826 s.
For `O=C(CSc1ccc(-c2ccco2)nn1)N1CCCCC1`, the RP-LC retention time was 690 s.
Work on `COc1cc(-c2noc(Cn3cnc4c(cnn4-c4ccccc4)c3=O)n2)cc(OC)c1OC` yielded an RP-LC retention time of 920 s.
Compound `CCOC(=O)c1noc2nc(C)nc(Nc3ccc(CC)cc3)c12` has an RP-LC retention time of 1160 s.
`CCc1nncn1C1CCN(S(=O)(=O)c2ccc(C)cc2C)CC1` showed an RP-LC retention time of 738 s.
For `COc1cccc(-c2nc(C3CC(=O)N(c4ccc(F)c(Cl)c4)C3)no2)c1` (stereo not drawn), the RP-LC retention time was 1100 s.
For `COc1ccc(C(=O)NC2CCN(c3ccc(F)cc3)C2=O)cc1F` (stereo not drawn), the RP-LC retention time was 806 s.
For `O=C(c1cccs1)N(Cc1ccco1)c1nc2c(F)cc(F)cc2s1`, the RP-LC retention time was 1160 s.
In the case of `Cc1cc(C)n2c(Nc3ccccc3C)c(-c3ccc(O)cc3)nc2n1`, the RP-LC retention time was 907 s.
With `Cc1cccc2cc3cccc(C)c3nc12` the RP-LC retention time was 696 s.
`O=C(CN1C(=O)C(C(=O)N2CCCCCC2)Sc2ccccc21)N1CCN(c2ncccn2)CC1` (stereo not drawn) showed an RP-LC retention time of 784 s.
`CCc1ccccc1NC(=O)C1CCN(S(C)(=O)=O)c2cc(C)ccc2O1` (stereo not drawn) showed an RP-LC retention time of 880 s.
`O=C(CNS(=O)(=O)c1ccc2c(c1)OCCO2)N1CCOC(c2ccccc2)C1` (stereo not drawn) gave an RP-LC retention time of 775 s.
`CN(CCCNC(=O)CN1C(=O)CCn2nc(-c3cn(C)c4ccccc34)cc21)Cc1ccccc1` gave an RP-LC retention time of 645 s.
`CC(C(=O)O)c1ccc2c(c1)Cc1cccnc1O2` (stereo not drawn) showed an RP-LC retention time of 797 s.
For `Cc1cc([N+](=O)[O-])ccc1NC(=O)C(=O)NCc1cccs1`, the RP-LC retention time was 864 s.
In the case of `Cc1cc(C)cc(C(=O)N2CCCC(C(=O)Nc3c(C)cc(C)cc3C)C2)c1` (stereo not drawn), the RP-LC retention time was 983 s.
Compound `CCn1c(C(=O)N2CCN(c3ccc(OC)cc3)CC2)cc2sccc21` has an RP-LC retention time of 973 s.
For `COC(=O)c1ccccc1NC(=O)CSc1cc(-n2nc(C)cc2C)ncn1`, the RP-LC retention time was 1130 s.
`Cc1ccc(NC(=O)C2CCN(S(=O)(=O)c3ccc4c(c3)NC(=O)C(C)O4)CC2)cc1` (stereo not drawn) gave an RP-LC retention time of 817 s.
For `CNc1cccnc1OC1CCN(Cc2ccccn2)C1` (stereo not drawn), the RP-LC retention time was 577 s.
With `COc1ccc(N2CC(c3nc(-c4ccc(C(F)(F)F)cc4)no3)CC2=O)c(OC)c1` (stereo not drawn) the RP-LC retention time was 1030 s.
In the case of `CCNC(=O)N1CCc2c([nH]c3ccc(Cl)cc23)C12C(=O)N(C)c1ccccc12` (stereo not drawn), the RP-LC retention time was 822 s.
Work on `O=C(NC1CCCCC1)C1c2cccn2CC(=O)N1Cc1ccc(F)cc1` (stereo not drawn) yielded an RP-LC retention time of 918 s.
In the case of `O=C(NCc1ccc2c(c1)OCO2)c1cn2c(n1)COCC2`, the RP-LC retention time was 616 s.
In the case of `CCCCN(C)C(=O)C1CCN(c2cncnc2N(C)C)CC1`, the RP-LC retention time was 611 s.
With `CC(CNC(=O)c1cn(C)nc1S(=O)(=O)N1CCSCC1)c1ccccc1` (stereo not drawn) the RP-LC retention time was 1120 s.
Work on `COc1cc(NC(=O)CN2C(=O)C(C)(C)c3ccccc32)cc(OC)c1OC` yielded an RP-LC retention time of 784 s.
`O=C(CN1CCc2ccccc2C1C(=O)N1CCCC1)NCc1cccc(C(F)(F)F)c1` (stereo not drawn) gave an RP-LC retention time of 838 s.
With `O=C(Nc1cccc(F)c1)c1nnc(CSCC(=O)N2CCN(c3ccccn3)CC2)s1` the RP-LC retention time was 654 s.
Work on `CCN1CCN(CCNC(=O)C2CCCN(c3nc4cccnc4s3)C2)CC1` (stereo not drawn) yielded an RP-LC retention time of 562 s.
Work on `Cc1cc(=O)n(CC(=O)Nc2ccc3c(c2)OCO3)c(N2CCCCC2)n1` yielded an RP-LC retention time of 666 s.
Work on `Cc1ccccc1NS(=O)(=O)c1cccc(-c2nc(-c3ccccc3)no2)c1` yielded an RP-LC retention time of 1160 s.
`O=C(NC1CCCCCC1)c1ccc2ccnc(N3CCN(c4ccccc4F)CC3)c2c1` showed an RP-LC retention time of 973 s.
With `CCC(CC)C(=O)Nc1nc(-c2ccc(Cl)cc2)cs1` the RP-LC retention time was 1150 s.
`COc1ccc(-c2cn3cccnc3n2)cc1NC(=O)c1c(F)cccc1F` gave an RP-LC retention time of 653 s.
For `CCNC(=O)c1n[nH]c2c1CN(C(=O)c1cccc(Br)c1)CC2`, the RP-LC retention time was 678 s.
For `O=C1NC(=O)C2(CCc3ccccc32)N1` (stereo not drawn), the RP-LC retention time was 670 s.
For `CCN1C(=O)Cc2ccccc2C1C(=O)NCc1ccccc1Br` (stereo not drawn), the RP-LC retention time was 780 s.
Compound `Cn1ncc2c3ccccc3n(CCCC(=O)N3CCN(c4ccccc4)CC3)c2c1=O` has an RP-LC retention time of 918 s.
`O=C(NCC1CC1)c1cn(-c2cc(-c3nc(C4CC4)no3)ccn2)cn1` showed an RP-LC retention time of 848 s.
Work on `CSc1ccc(-c2nc3cc(C)ccn3c2Nc2ccc3c(c2)OCCO3)cc1` yielded an RP-LC retention time of 719 s.
For `COc1cccc(C(=O)N2CCN(c3nc4ccccc4n(C)c3=O)CC2)c1`, the RP-LC retention time was 877 s.
Compound `CN(C)C(CNC(=O)c1cc(=O)c2ccccc2o1)c1cn(C)c2ccccc12` (stereo not drawn) has an RP-LC retention time of 554 s.
In the case of `CCOC(=O)c1sc(NC(=O)c2cc(OC)ccc2OC)cc1C`, the RP-LC retention time was 1000 s.
`CN1C(=O)c2ccccc2C(C(=O)NCCCN2CCc3ccccc3C2)C1c1cccs1` (stereo not drawn) showed an RP-LC retention time of 647 s.
`CC1CCN(C(=O)C2=CN(c3ccc(F)cc3)c3ccccc3S2(=O)=O)CC1` gave an RP-LC retention time of 907 s.
In the case of `O=C(c1cc(C2CC2)[nH]n1)N1CCC(Cc2ccccc2)CC1`, the RP-LC retention time was 902 s.
In the case of `O=C(c1ccc2ncccc2c1)N1CCN(c2cc(-c3cccs3)[nH]n2)CC1`, the RP-LC retention time was 641 s.
With `Cn1nc(-c2nnc(-c3ccc(F)cc3)o2)c2c1CCN(S(=O)(=O)c1cccc(C#N)c1)C2` the RP-LC retention time was 891 s.
`CN(C)c1cnc(-n2cc(NC(=O)CCCc3ccccc3)cn2)nc1` showed an RP-LC retention time of 724 s.
In the case of `CCC1(C(=O)NCc2ccc(C(C)C)cc2)CCCCC(=O)N1` (stereo not drawn), the RP-LC retention time was 814 s.
`COC(=O)c1c(NCc2ccccc2Br)c2cc(F)ccc2[nH]c1=O` gave an RP-LC retention time of 787 s.
For `Cc1ccc(-c2csc(NC(=O)c3nc4ccccc4s3)n2)o1`, the RP-LC retention time was 1120 s.
For `O=c1cc(-c2cc(O)c(O)c([C@@H]3O[C@H](CO)[C@@H](O)[C@H](O)[C@H]3O)c2)oc2cc(O[C@@H]3O[C@H](CO)[C@@H](O)[C@H](O)[C@H]3O)cc(O)c12`, the RP-LC retention time was 648 s.
In the case of `COCc1cc(=O)n(CC(=O)Nc2ccccc2OC)c(N2CCOCC2)n1`, the RP-LC retention time was 846 s.
`CCc1nc(OCC(=O)Nc2cc(OC)ccc2OC)c2ccccc2n1` showed an RP-LC retention time of 821 s.
With `O=C(NCCc1ccco1)C1CCN(Cc2cc3ccccc3n2Cc2ccccc2)CC1` the RP-LC retention time was 762 s.
For `COC(=O)c1cnc2nc(C)ccc2c1Nc1cccc(F)c1`, the RP-LC retention time was 673 s.
In the case of `CCOCC(=O)N1CCCC(c2nc(CNC(=O)C(C)C)cs2)C1` (stereo not drawn), the RP-LC retention time was 625 s.
`CCOc1ccc(-c2csc(C)n2)cc1S(=O)(=O)Nc1ccc(F)cc1` showed an RP-LC retention time of 985 s.
`CCOC(=O)c1nc(NCc2ccccc2OCC)c2c(C)noc2n1` showed an RP-LC retention time of 988 s.
For `COc1ccc(C2=NN(C(=O)c3ccccc3)C(c3cccc([N+](=O)[O-])c3)C2)cc1` (stereo not drawn), the RP-LC retention time was 1000 s.
Work on `C=CCn1c(SCC(=O)OCC)nnc1-c1ccc([N+](=O)[O-])cc1` yielded an RP-LC retention time of 743 s.
